Results: patent EP1329454A1, “THIENOPYRIMIDINE COMPOUNDS AND THEIR SALTS AND PROCESS FOR PREPARATION OF BOTH” (NIPPON SODA CO., LTD., priority 2000, dated 2002)

Columns and labels:
Type in all cases: biochemical
[1] = target: T1, PDE 5 (cGMP specific PDE) (Homo sapiens, UniProt O76074); assay: Phosphodiesterase inhibiting effect, PDE 5 separated from human platelets; settings: isozyme from human platelets; [3H]-cAMP or [3H]-cGMP substrate; read-out: PDE inhibiting activity : IC50(nM) PDE5
T1 construct: from tissue; host or cells: human platelets, DEAE-cellulose fraction
Procedure: (§1) Cyclic nucleotide phosphodiesterases from human platelets and from the heart and kidney of a dog were eluted by the concentration gradient method with 70 to 1000 mM of sodium acetate on DEAE-cellulose column chromatography (Whatman Co. Ltd., DE-52, φ 3.2 x 13 cm) according to the method of Thompson and others (Thompson W. J., et al., Advances in Cyclic Nucleotide Research: 10, 69-92, 1979), and separated into isozymes. PDE 5 (cGMP specific PDE), PDE 3 (cGMP inhibited PDE) and PDE 2 (cGMP stimulated PDE) were separated from the platelets, PDE 1 (Ca-calmodulin dependent PDE) and PDE 4 (cAMP specific PDE) were separated from the heart and the kidney respectively. The method of Thompson, et al was partially modified to measure phosphodiesterase activities: […] of [3H]-cAMP or [3H]-cGMP was decomposed with phosphodiesterase. The produced 5'-AMP or 5'-GMP was decomposed to adenosine or guanosine with a snake venom (Sigma V7000). The reaction solution was added to anion exchange resin (Bio-Rad Co. Ltd., AG1-X8). Non-adsorbed adenosine or guanosine was counted by a liquid scintillation counter. […]

[2] = target: PDE 1 (Ca-calmodulin dependent PDE); assay: Phosphodiesterase inhibiting effect, PDE 1 separated from dog heart; settings: isozyme from the heart of a dog; [3H]-cAMP or [3H]-cGMP substrate; read-out: PDE inhibiting activity : IC50(nM) PDE1
Procedure: as §1

[3] = target: PDE 4 (cAMP specific PDE); assay: Phosphodiesterase inhibiting effect, PDE 4 separated from dog kidney; settings: isozyme from the kidney of a dog; [3H]-cAMP or [3H]-cGMP substrate; read-out: PDE inhibiting activity : IC50(nM) PDE4
Procedure: as §1

[4] = target: T2, PDE 3 (cGMP inhibited PDE) (Homo sapiens, UniProt Q14432); settings: isozyme from human platelets; [3H]-cAMP or [3H]-cGMP substrate; read-out: PDE inhibiting activity : IC50(nM) PDE3
T2 construct: from tissue; host or cells: human platelets, DEAE-cellulose fraction
Text: PDE 5 (cGMP specific PDE), PDE 3 (cGMP inhibited PDE) and PDE 2 (cGMP stimulated PDE) were separated from the platelets, PDE 1 (Ca-calmodulin dependent PDE) and PDE 4 (cAMP specific PDE) were separated from the heart and the kidney respectively. The method of Thompson, et al was partially modified to measure phosphodiesterase activities: […] of [3H]-cAMP or [3H]-cGMP was decomposed with phosphodiesterase. The produced 5'-AMP or 5'-GMP was decomposed to adenosine or guanosine with a snake venom (Sigma V7000). The reaction solution was added to anion exchange resin (Bio-Rad Co. Ltd., AG1-X8). Non-adsorbed adenosine or guanosine was counted by a liquid scintillation counter.

T2 sequence (Q14432 whole entry): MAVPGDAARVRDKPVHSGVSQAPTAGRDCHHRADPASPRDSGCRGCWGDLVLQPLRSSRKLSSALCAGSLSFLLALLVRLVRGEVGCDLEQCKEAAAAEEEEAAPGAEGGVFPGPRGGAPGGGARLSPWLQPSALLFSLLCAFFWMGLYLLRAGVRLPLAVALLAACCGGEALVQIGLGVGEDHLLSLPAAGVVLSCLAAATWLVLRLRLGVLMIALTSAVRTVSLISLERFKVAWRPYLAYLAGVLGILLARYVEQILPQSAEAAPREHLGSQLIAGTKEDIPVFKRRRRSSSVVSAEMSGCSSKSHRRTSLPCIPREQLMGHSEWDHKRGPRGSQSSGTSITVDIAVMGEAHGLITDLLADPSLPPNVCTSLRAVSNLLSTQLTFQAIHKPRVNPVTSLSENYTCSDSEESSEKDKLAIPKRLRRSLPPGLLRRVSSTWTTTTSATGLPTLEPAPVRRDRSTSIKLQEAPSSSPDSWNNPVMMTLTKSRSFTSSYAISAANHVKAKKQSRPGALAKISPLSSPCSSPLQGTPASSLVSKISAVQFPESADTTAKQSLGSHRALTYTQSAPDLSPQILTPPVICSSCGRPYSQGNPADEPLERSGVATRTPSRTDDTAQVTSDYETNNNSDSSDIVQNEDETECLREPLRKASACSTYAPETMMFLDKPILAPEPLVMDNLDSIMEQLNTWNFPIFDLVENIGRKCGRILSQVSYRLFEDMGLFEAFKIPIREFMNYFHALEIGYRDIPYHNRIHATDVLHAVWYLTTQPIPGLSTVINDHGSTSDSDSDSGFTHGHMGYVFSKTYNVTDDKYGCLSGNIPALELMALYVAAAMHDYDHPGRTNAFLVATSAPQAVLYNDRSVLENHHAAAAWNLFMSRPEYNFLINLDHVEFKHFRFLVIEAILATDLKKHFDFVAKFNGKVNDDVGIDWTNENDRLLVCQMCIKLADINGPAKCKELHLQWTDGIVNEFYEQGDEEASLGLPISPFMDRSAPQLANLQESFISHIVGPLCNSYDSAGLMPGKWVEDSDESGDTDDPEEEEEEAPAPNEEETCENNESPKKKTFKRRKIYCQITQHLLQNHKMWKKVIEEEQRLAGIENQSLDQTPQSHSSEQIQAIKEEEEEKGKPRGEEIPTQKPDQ

Row | Structure (SMILES) | IC50 [1] | IC50 [2] | IC50 [3] | IC50 [4]
1 | COc1ccc(CNc2nc(-c3cccnc3)nc3sc(C(=O)NCCO)c(C)c23)cc1Cl [Compound 17] | 2.8 nM | – | – | –
2 | COc1ccc(CNc2nc(-c3ccncc3)nc3sc(C(=O)N4CCCCC4)c(C)c23)cc1Cl [Compound 28] | 0.5 nM | > 10000 nM | 1600 nM | –
3 | COc1ccc(CNc2nc(-c3ccncc3)nc3sc(C(=O)N4CCN(C)CC4)c(C)c23)cc1Cl [Compound 29] | 0.52 nM | > 10000 nM | 6900 nM | –
4 | COc1ccc(CNc2nc(-c3cccnc3)nc3sc(-c4ccncc4)c(C)c23)cc1Cl [Compound 10] | 3.3 nM | > 10000 nM | – | –
5 | COc1ccc(CNc2nc(-c3ccncc3)nc3sc(C(=O)Nc4ccc(NC(=O)OC(C)(C)C)cc4)c(C)c23)cc1Cl [Compound 25] | 0.52 nM | – | – | –
6 | COc1ccc(CNc2nc(-c3ccncc3)nc3sc(-c4ccccn4)c(C)c23)cc1Cl [Compound 32] | 0.68 nM | > 10000 nM | 240 nM | –
7 | COc1ccc(CNc2nc(-c3ccccn3)nc3sc(C(=O)Nc4ccccc4)c(C)c23)cc1Cl [Compound 44] | 6.4 nM | > 10000 nM | – | –
8 | COc1ccc(CNc2nc(C(=O)Nc3ccccc3)nc3sc(-c4cccnc4)c(C)c23)cc1Cl [Compound 57] | 0.29 nM | – | – | –
9 | COc1ccc(CNc2nc(-c3ccccn3)nc3sc(C(=O)Nc4nccs4)c(C)c23)cc1Cl [Compound 50] | 2.3 nM | – | – | –
10 | COc1ccc(CNc2nc(-c3cccnc3)nc3sc(C(N)=O)c(C)c23)cc1Cl [Compound 3] | 2.3 nM | – | – | –
11 | COc1ccc(CNc2nc(C(=O)Nc3ccccc3)nc3sc(C(=O)Nc4ccccc4)c(C)c23)cc1Cl [Compound 87] | 0.27 nM | – | – | –
12 | COc1ccc(CNc2nc(C(=O)Nc3ccccc3)nc3sc(-c4ccncc4)c(C)c23)cc1Cl [Compound 68] | 0.27 nM | > 10000 nM | 10000 nM | 2400 nM
13 | COc1ccc(CNc2nc(-c3cccnc3)nc3sc(C(=O)N4CCN(C=O)CC4)c(C)c23)cc1Cl [Compound 9] | 6.1 nM | – | – | –
14 | COc1ccc(CNc2nc(-c3ccncc3)nc3sc(C(=O)Nc4ccc(N)cc4)c(C)c23)cc1Cl [Compound 26] | 0.5 nM | – | – | –
15 | COc1ccc(CNc2nc(-c3ccccn3)nc3sc(C(=O)Nc4cccnc4)c(C)c23)cc1Cl [Compound 51] | 7.2 nM | – | – | –
16 | COc1ccc(CNc2nc(-c3cccnc3)nc3sc(C(=O)Nc4ccccc4)c(C)c23)cc1Cl [Compound 6] | 1.5 nM | > 10000 nM | – | –
17 | COc1ccc(CNc2nc(-c3cccnc3)nc3sc(C(=O)N4CCOCC4)c(C)c23)cc1Cl [Compound 7] | 3.5 nM | > 10000 nM | 1700 nM | –
18 | COc1ccc(CNc2nc(-c3ccncc3)nc3sc(C(=O)NCCO[N+](=O)[O-])c(C)c23)cc1Cl [Compound 38] | 0.65 nM | – | – | –

Row | Structure (SMILES) | IC50 [1] | IC50 [2] | IC50 [3] | IC50 [4]
19 | COc1ccc(CNc2nc(-c3cccnc3)nc3sc(C(=O)Nc4cccnc4)c(C)c23)cc1Cl [Compound 14] | 2.1 nM | – | – | –
20 | CCOC(=O)c1nc(NCc2ccc(OC)c(Cl)c2)c2cc(-c3ccccc3)sc2n1 [Compound 93] | 2.9 nM | > 10000 nM | > 10000 nM | > 10000 nM
21 | COc1ccc(CNc2nc(-c3ccncc3)nc3sc(C(=O)Nc4nccs4)c(C)c23)cc1Cl [Compound 33] | 0.095 nM | – | – | –
22 | COc1ccc(CNc2nc(-c3cccnc3)nc3sc(C#N)c(C)c23)cc1Cl [Compound 4] | 4.5 nM | – | – | –
23 | COc1ccc(CNc2nc(-c3ccncc3)nc3sc(C(=O)N4CCOCC4)c(C)c23)cc1Cl [Compound 27] | 0.53 nM | > 10000 nM | 3700 nM | –
24 | CCOC(=O)c1sc2nc(-c3ccncc3)nc(NCc3ccc(OC)c(Cl)c3)c2c1C [Compound 20] | 3.2 nM | > 10000 nM | > 10000 nM | –
25 | COc1ccc(CNc2nc(-c3ccncc3)nc3sc(C(=O)O)c(C)c23)cc1Cl [Compound 19] | 0.74 nM | > 10000 nM | 4400 nM | –
26 | COc1ccc(CNc2nc(C(=O)Nc3ccccc3)nc3scc(C)c23)cc1Cl [Compound 91] | 2.5 nM | > 10000 nM | 3400 nM | > 10000 nM
27 | COc1ccc(CNc2nc(C(=O)Nc3ccccc3)nc3sc(-c4ccc(F)cc4)c(C)c23)cc1Cl [Compound 90] | 0.43 nM | > 10000 nM | 8400 nM | > 10000 nM
28 | COc1ccc(CNc2nc(-c3cccnc3)nc3sc(C(=O)NCCO[N+](=O)[O-])c(C)c23)cc1Cl [Compound 18] | 2.8 nM | – | – | –
29 | COc1ccc(CNc2nc(C(=O)Nc3ccccc3)nc3sc(-c4ccccc4)cc23)cc1Cl [Compound 94] | 0.71 nM | > 10000 nM | 5600 nM | > 10000 nM
30 | CCCc1nn(C)c2c(=O)[nH]c(-c3cc(S(=O)(=O)N4CCN(C)CC4)ccc3OCC)nc12 [Control, Sildenafil, reference compound] | – | 2000 nM | > 1000 nM | –
31 | COc1ccc(CNc2nc(-c3cccnc3)nc3sc(C(=O)N(C)C)c(C)c23)cc1Cl [Compound 5] | 3.7 nM | > 10000 nM | 1400 nM | –
32 | COc1ccc(CNc2nc(-c3ccncc3)nc3sc(C(=O)Nc4ccccc4)c(C)c23)cc1Cl [Compound 24] | 0.46 nM | – | – | –
33 | COc1ccc(CNc2nc(-c3ccncc3)nc3sc(C(=O)N(C)C)c(C)c23)cc1Cl [Compound 23] | 1.6 nM | > 10000 nM | 1600 nM | –
34 | COc1ccc(CNc2nc(-c3cccnc3)nc3sc(C(=O)O)c(C)c23)cc1Cl [Compound 1] | 3 nM | 7100 nM | 1200 nM | –
35 | COc1ccc(CNc2nc(-c3cccnc3)nc3sc(C(=O)Nc4nccs4)c(C)c23)cc1Cl [Compound 13] | 0.32 nM | – | – | –
